# Measured values reported in patent US10294202B2, “Pyrrolidinones as herbicides” (FMC Corporation, priority 2013, dated 2019).
# Assays:
# barnyardgrass = assay: Test A pre-/postemergence herbicide test; format: in vivo, Echinochloa crus-galli; settings: for Plant response rating, Barnyardgrass: 0 to 100 scale
# Summary of the method: (§1)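 Directed soil spray to seeded pots (preemergence) or spray onto one- to two-leaf seedlings 2–10 cm tall (postemergence); loam/sand substrate throughout. Evaluated visually after about 10 days against untreated plants, 0 = no effect, 100 = complete control.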
# pigweed = assay: Test A pre-/postemergence herbicide test; format: in vivo, Amaranthus retroflexus; settings: for Plant response rating, Pigweed: 0 to 100 scale
# Summary of the method: as §1
# wheat = assay: Test A pre-/postemergence herbicide test; format: in vivo, Triticum aestivum; settings: Postemergence
# Summary of the method: as §1
# corn [1] = assay: Test A pre-/postemergence herbicide test; format: in vivo, Zea mays; settings: Postemergence
# Summary of the method: as §1
# ryegrass, Italian = assay: Test C pre-/postemergence herbicide test; format: in vivo, Lolium multiflorum
# Summary of the method: (§2)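 Two application timings ran in parallel with identically formulated test chemicals (non-phytotoxic solvent, surfactant included): spray on seeded loam–sand soil, and spray on emerged plants 2 to 18 cm high. Evaluation at 13 to 15 days compared each species with controls, rated from 0 up to 100.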
# wheat (winter wheat) = assay: Test C pre-/postemergence herbicide test; format: in vivo, Triticum aestivum
# Summary of the method: as §2
# galium = assay: Test C pre-/postemergence herbicide test; format: in vivo, Galium aparine
# Summary of the method: as §2
# corn [2] = assay: Test C pre-/postemergence herbicide test; format: in vivo, Zea mays
# Summary of the method: as §2
# crabgrass, large = assay: Test C pre-/postemergence herbicide test; format: in vivo, Digitaria sanguinalis
# Summary of the method: as §2
# foxtail, giant = assay: Test C pre-/postemergence herbicide test; format: in vivo, Setaria faberii
# Summary of the method: as §2
# johnsongrass = assay: Test C pre-/postemergence herbicide test; format: in vivo, Sorghum halepense
# Summary of the method: as §2
# morningglory = assay: Test C pre-/postemergence herbicide test; format: in vivo, Ipomoea coccinea
# Summary of the method: as §2
# soybean = assay: Test C pre-/postemergence herbicide test; format: in vivo, Glycine max
# Summary of the method: as §2
# [3] = 125 g ai/ha, visual rating, 0 no effect, 100 complete control, approximately 10 days, preemergence
# [4] = Postemergence, 125 g ai/ha, 0 is no effect, 100 is complete control
# [5] = preemergence, 500 g ai/ha, 0 is no effect and 100 is complete control
# [6] = 125 g ai/ha, 0 to 100 scale, 0 is no effect, 100 is complete control
# [7] = Postemergence, 31 g ai/ha, scale 0 to 100 (0 no effect, 100 complete control)
# [8] = Postemergence, 62 g ai/ha, scale 0 (no effect) to 100 (complete control)
# [9] = Postemergence, 125 g ai/ha, scale 0 to 100 (0 no effect, 100 complete control)
# [10] = Postemergence, 250 g ai/ha, scale 0 to 100 (0 no effect, 100 complete control)
# [11] = Preemergence, 31 g ai/ha, scale 0 to 100, 0 is no effect and 100 is complete control
# [12] = Preemergence, 62 g ai/ha, scale 0 to 100 (0 no effect, 100 complete control)
# [13] = Preemergence, 125 g ai/ha, scale 0 to 100 (0 no effect, 100 complete control)
compound,measurement,setting,value
O=C1NCC(c2cccc(OC(F)F)c2)C1C(=O)Nc1ccccc1F (stereo not drawn) [Compound 223],"Plant response rating, Barnyardgrass",barnyardgrass; [3],90
same,"Plant response rating, Barnyardgrass",barnyardgrass; [4],80
same,"Barnyardgrass plant response rating (0 to 100 scale, 0 is no effect, 100 is complete control)","barnyardgrass; Postemergence, 500 g ai/ha",80
same,"Plant response rating, Barnyardgrass",barnyardgrass; [5],90
same,"Plant response rating, Pigweed",pigweed; [3],20
same,"Plant response rating, Pigweed",pigweed; [4],40
same,"Pigweed plant response rating (0 to 100 scale, 0 is no effect, 100 is complete control)","pigweed; Postemergence, 500 g ai/ha",60
same,"Plant response rating, Pigweed",pigweed; [5],50
same,"Plant response rating, Wheat",wheat; [6],40
same,"Wheat plant response rating (0 to 100 scale, 0 is no effect, 100 is complete control)",wheat; 500 g ai/ha,50
same,"Plant response rating, Corn",corn [1]; [6],0
same,"Corn plant response rating (0 to 100 scale, 0 is no effect, 100 is complete control)",corn [1]; 500 g ai/ha,50
same,"Plant response rating, Ryegrass, Italian","ryegrass, Italian; [7]",0
same,"Plant response rating, Ryegrass, Italian","ryegrass, Italian; [8]",0
same,"Plant response rating, Ryegrass, Italian","ryegrass, Italian; [9]",0
same,"Plant response rating, Ryegrass, Italian","ryegrass, Italian; [10]",0
same,"Ryegrass, Italian plant response rating","ryegrass, Italian; [11]",0
same,"Ryegrass, Italian plant response rating","ryegrass, Italian; [12]",0
same,"Plant response rating, Ryegrass, Italian","ryegrass, Italian; [13]",10
same,"Plant response rating (scale of 0 to 100), Ryegrass, Italian","ryegrass, Italian; Preemergence, 250 g ai/ha",15
same,"Plant response rating, Wheat",wheat (winter wheat); [7],0
same,"Plant response rating, Wheat",wheat (winter wheat); [8],0
same,"Plant response rating, Wheat",wheat (winter wheat); [9],0
same,"Plant response rating, Wheat",wheat (winter wheat); [10],0
same,Wheat plant response rating,wheat (winter wheat); [11],0
same,Wheat plant response rating,wheat (winter wheat); [12],5
same,"Plant response rating, Wheat",wheat (winter wheat); [13],10
same,"Plant response rating (scale of 0 to 100), Wheat","wheat (winter wheat); Preemergence, 250 g ai/ha",35
same,"Plant response rating, Galium",galium; [7],5
same,"Plant response rating, Galium",galium; [8],5
same,"Plant response rating, Galium",galium; [9],45
same,"Plant response rating, Galium",galium; [10],70
same,Galium plant response rating,galium; [11],0
same,Galium plant response rating,galium; [12],0
same,"Plant response rating, Galium",galium; [13],90
same,"Plant response rating (scale of 0 to 100), Galium","galium; Preemergence, 250 g ai/ha",90
same,"Plant response rating, Corn",corn [2]; [7],0
same,"Plant response rating, Corn",corn [2]; [8],0
same,"Plant response rating, Corn",corn [2]; [9],0
same,"Plant response rating, Corn",corn [2]; [10],5
same,Corn plant response rating,corn [2]; [11],0
same,Corn plant response rating,corn [2]; [12],0
same,"Plant response rating, Corn",corn [2]; [13],0
same,"Plant response rating (scale of 0 to 100), Corn","corn [2]; Preemergence, 250 g ai/ha",45
same,"Plant response rating, Crabgrass, Large","crabgrass, large; [7]",0
same,"Plant response rating, Crabgrass, Large","crabgrass, large; [8]",10
same,"Plant response rating, Crabgrass, Large","crabgrass, large; [9]",55
same,"Plant response rating, Crabgrass, Large","crabgrass, large; [10]",80
same,"Crabgrass, Large plant response rating","crabgrass, large; [11]",85
same,"Crabgrass, Large plant response rating","crabgrass, large; [12]",90
same,"Plant response rating, Crabgrass, Large","crabgrass, large; [13]",95
same,"Plant response rating (scale of 0 to 100), Crabgrass, Large","crabgrass, large; Preemergence, 250 g ai/ha",100
same,"Plant response rating, Foxtail, Giant","foxtail, giant; [7]",0
same,"Plant response rating, Foxtail, Giant","foxtail, giant; [8]",35
same,"Plant response rating, Foxtail, Giant","foxtail, giant; [9]",30
same,"Plant response rating, Foxtail, Giant","foxtail, giant; [10]",35
same,"Foxtail, Giant plant response rating","foxtail, giant; [11]",70
same,"Foxtail, Giant plant response rating","foxtail, giant; [12]",85
same,"Plant response rating, Foxtail, Giant","foxtail, giant; [13]",90
same,"Plant response rating (scale of 0 to 100), Foxtail, Giant","foxtail, giant; Preemergence, 250 g ai/ha",98
same,"Plant response rating, Johnsongrass",johnsongrass; [7],0
same,"Plant response rating, Johnsongrass",johnsongrass; [8],0
same,"Plant response rating, Johnsongrass",johnsongrass; [9],0
same,"Plant response rating, Johnsongrass",johnsongrass; [10],0
same,Johnsongrass plant response rating,johnsongrass; [11],0
same,Johnsongrass plant response rating,johnsongrass; [12],0
same,"Plant response rating, Johnsongrass",johnsongrass; [13],35
same,"Plant response rating (scale of 0 to 100), Johnsongrass","johnsongrass; Preemergence, 250 g ai/ha",55
same,"Plant response rating, Morningglory",morningglory; [7],0
same,"Plant response rating, Morningglory",morningglory; [8],0
same,"Plant response rating, Morningglory",morningglory; [9],0
same,"Plant response rating, Morningglory",morningglory; [10],35
same,Morningglory plant response rating,morningglory; [11],0
same,Morningglory plant response rating,morningglory; [12],0
same,"Plant response rating, Morningglory",morningglory; [13],10
same,"Plant response rating (scale of 0 to 100), Morningglory","morningglory; Preemergence, 250 g ai/ha",20
same,"Plant response rating, Soybean",soybean; [7],10
same,"Plant response rating, Soybean",soybean; [8],0
same,"Plant response rating, Soybean",soybean; [9],0
same,"Plant response rating, Soybean",soybean; [10],30
same,Soybean plant response rating,soybean; [11],0
same,Soybean plant response rating,soybean; [12],5
same,"Plant response rating, Soybean",soybean; [13],5
same,"Plant response rating (scale of 0 to 100), Soybean","soybean; Preemergence, 250 g ai/ha",15
